Source: the NIST ThermoML archive (doi:10.1021/acs.jced.6b00142)
Where “and” joins values, the source holds several entries; their conditions need not be identical. Equal values may be shown once.

Conditions: Liquid, Diaphragm manometer

Cl[SiH2]Cl [dichlorosilane]
Conditions	vapor or sublimation pressure
299.99 K	214.5 kPa [middle of 4 runs]
300 K	216.5 kPa and 212.1 kPa and 214.2 kPa
309.99 K	284.3 kPa
319.98 K	377.6 kPa
319.99 K	377.9 kPa
320 K	380.4 kPa and 381.43 kPa and 377.3 kPa
323.01 K	407.8 kPa
329.99 K	485.8 kPa
330.02 K	492.2 kPa
339.99 K	626.4 kPa [middle of 4 runs]
340 K	628.6 kPa
343.01 K	672.6 kPa
349.99 K	784.7 kPa and 786.4 kPa and 789 kPa
350 K	785 kPa
359.98 K	981.9 kPa
359.99 K	985.9 kPa [middle of 4 runs]
362.99 K	1052.1 kPa
369.98 K	1205 kPa
369.99 K	1205 kPa and 1209 kPa
379.99 K	1477 kPa [middle of 5 runs]
389.99 K	1779 kPa and 1784 kPa and 1780.5 kPa
399.99 K	2099 kPa and 2138 kPa
409.98 K	2559 kPa
410 K	2534 kPa
419.99 K	3016 kPa

Cl[Si](Cl)(Cl)Cl [silicon tetrachloride]
Conditions	vapor or sublimation pressure
332.99 K	113.02 kPa
340 K	139.15 kPa and 138.98 kPa
350.01 K	185.05 kPa
360 K	241.64 kPa
370 K	311.49 kPa
380 K	395.69 kPa
390 K	495.9 kPa
400 K	614 kPa

Cl[SiH](Cl)Cl [trichlorosilane]
Conditions	vapor or sublimation pressure [kPa]
310 K	121.89
320 K	167.53
330 K	225.35
340 K	297.4
350 K	385.6
360 K	492.1
370 K	619.6
380 K	770.2
380.5 K	778.2
385 K	854.6
390 K	946
395 K	1044.2
